“And” between values parts separate entries of the source, which are not always exact repeats. Identical values can stand only once.
What was measured:
[1] = Body weight of non-obese rats fed palatable diet (model of excessive eating); type: in vivo, rat
From the text: In order to determine the anorectic activity of 6 or 26, the model of excessive eating was used. Male Wistar rats (170–190 g) were housed in a pair in plastic cages in constant temperature facilities exposed to a light-dark cycle. Water and food were available ad libitum. Two groups of 6 rats were fed with diets consisting of milk chocolate with nuts, cheese, salted peanuts, and 7% condensed milk and also had access to standard feed (Labofeed B, Morawski Manufacturer Feed, Kcynia, Poland) and water ad libitum for 3 weeks. Palatable control group (palatable diet + vehicle) received vehicle (1% Tween 80, intraperitoneally), while palatable test group (palatable diet + 6 or palatable + 26) was injected (intraperitoneally) with 6 or 26 at the dose of 5 mg/kg b.w. dissolved in 1% Tween 80 (1 mL/kg). Body weights were measured daily, immediately prior to administration of drugs.
The palatable diet contained: 100 g peanuts—614 kcal; 100 mL condensed milk—131 kcal; 100 g milk chocolate—529 kcal; 100g cheese (Greek type)—270 kcal. The standard diet contained 100 g feed—280 kcal.

[2] = Body weight of non-obese rats fed only standard diet; type: in vivo, rat; conditions: rats consuming standard feed, 5 mg/kg b.w. i.p.
Method: Male Wistar rats (170–190 g) were housed in a pair in plastic cages in constant temperature facilities exposed to a light-dark cycle. Control group (standard diet + vehicle) received vehicle (1% Tween 80, intraperitoneally), while the test group (standard diet + 6 or standard diet + 26) was injected (intraperitoneally) with 6 or 26 at the dose of 5 mg/kg b.w. dissolved in 1% Tween 80 (1 mL/kg). Body weights were measured daily immediately prior to administration of drugs.

male Wistar rats = experiment: Vogel conflict drinking test; type: in vivo, rat; conditions: 3 mg/kg i.p. 60 min before test, 5 min session, p < 0.05
Method: The experiments were performed on male Wistar rats (200–220 g—behavioural test or 170–190 g—metabolic assay) obtained from an accredited animal facility at the Jagiellonian University Medical College, Poland. The animals were housed in a group of four in a controlled environment (ambient temperature 21 ± 2 °C; relative humidity 50–60%; 12 h light/dark cycles (lights on at 8:00). Standard laboratory food (LSM-B) and filtered water were freely available (behavioral tests). Animals were assigned randomly to treatment groups. All the experiments were performed by two observers unaware of the treatment applied between 9:00 and 14:00 on separate groups of animals. All animals were used only once.
Compounds were suspended in 1% Tween 80 immediately before administration in a volume of 2 mL/kg—behavioral tests or 1 mL/kg—body weight measures. Compounds were administered intraperitoneally (i.p.) 60 min before testing—behavioral tests. Control animals received vehicle (1% Tween 80) according to the same schedule.
The testing procedure was based on a method of Vogel et al. and used the Anxiety Monitoring System “Vogel test” produced by TSE Systems (Germany). […] The number of licks and the number of shocks received during a 5 min experimental session were recorded automatically.

human serotonin 5-HT6R = target: T1, human serotonin 5-HT6R (Homo sapiens, UniProt P50406); experiment: Radioligand binding assay, 5-HT6R, [3H]-LSD displacement
T1 construct: expressed in transfected cells; host or cells: HEK-293
Method: Five selective radioligands were employed (Table 1).
Radioligand binding assays were used to determine the affinity of the synthesized compounds for human serotonin 5-HT6R, which were stably expressed in HEK-293 cells. […] Each compound was tested in triplicate at 7 to 8 different concentrations (10^−11 to 10^−4 M). The inhibition constants (Ki) were calculated using the Cheng–Prusoff equation [40], and the results are expressed as the mean of at least two independent experiments.

Lipophilicity by RP-TLC = type: physicochemical; conditions: RP-18 TLC, water/methanol, extrapolated to 100% water
Method: For comparison, the active arylmethyl-triazine compounds previously found (1–3) were also examined. Stationary phase RP-18 and mixtures of water/methanol […] as a mobile phase were employed. RM values were calculated from the RF data obtained. […] The regression coefficients (r^2) determined for all compounds were higher than 0.95. On the basis of the linear relationship between RM values and the volume fraction of methanol, values of RM0 in the systems analyzed corresponding to 100% of water were obtained by extrapolation. RM0 values received for the compounds tested ranged from 3.14 to 4.49 (Figure 6).
The mobile phases were prepared by mixing the respective amounts of water and organic modifier (methanol) in a range from 40 to 90% (v/v) in 5% increments. TLC was performed on Silica gel 60RP-18 F254 plates (7 × 10 cm) plates (Merck, Darmstadt, Germany). Methanol was used to prepare the solutions of the substances. Solutions (10 µL) of the analyzed compounds were applied to the plates as 5 mm bands, 10 mm apart and 10 mm from the lower edge and sides of the plates, by using Linomat V applicator (Camag, Basel, Switzerland). The vertical chamber (Sigma–Aldrich, St. Louis, MI, USA), 20 × 10 × 18 cm in size, was saturated with mobile phase for 20 min. Development was carried out over 9 cm from the starting line at a temperature of 20 °C. Next, the plates were dried at room temperature, and the spots were observed under ultraviolet light at 254 nm and/or 366 nm (UV lamp, Camag, Basel, Switzerland). In each case, sharp and symmetric spots without a tendency for tailing were obtained. Each experiment was run in triplicate and mean RF (retardation factor) values were calculated.
Starting from the RF values, the RM parameters were computed as described in the formula:RM = log(1/RF − 1)
The linear correlations between the RM values of the substances and the concentration of methanol in mobile phases were calculated for each compound with the Soczewiński-Wachtmeister equation [22]:RM = RM0 + aC where C is the concentration of the organic modifier (in %) in the mobile phase, a is the slope, and RM0 is the […].

dopaminergic D2LR = target: T2, dopaminergic D2LR (Homo sapiens, UniProt P14416); experiment: Radioligand binding assay, D2LR, [3H]-Raclopride; conditions: human D2L receptor stably expressed in HEK-293 cells; read-out: Ki D2 [3H]-Raclopride
T2 construct: expressed in transfected cells; host or cells: HEK-293
T2 sequence (P14416 whole entry): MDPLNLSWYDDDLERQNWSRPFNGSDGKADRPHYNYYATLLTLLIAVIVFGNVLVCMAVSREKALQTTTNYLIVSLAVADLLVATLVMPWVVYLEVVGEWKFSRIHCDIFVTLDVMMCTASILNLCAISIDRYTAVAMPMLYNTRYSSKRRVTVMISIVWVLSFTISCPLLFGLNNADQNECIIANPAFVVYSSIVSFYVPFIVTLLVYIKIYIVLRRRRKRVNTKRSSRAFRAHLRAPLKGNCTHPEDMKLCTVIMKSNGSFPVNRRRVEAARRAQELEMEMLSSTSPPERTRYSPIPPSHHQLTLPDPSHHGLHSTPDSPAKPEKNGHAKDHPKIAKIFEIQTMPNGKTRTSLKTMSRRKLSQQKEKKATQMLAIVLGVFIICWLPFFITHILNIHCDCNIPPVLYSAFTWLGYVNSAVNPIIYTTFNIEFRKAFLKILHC

T1 sequence (P50406 whole entry): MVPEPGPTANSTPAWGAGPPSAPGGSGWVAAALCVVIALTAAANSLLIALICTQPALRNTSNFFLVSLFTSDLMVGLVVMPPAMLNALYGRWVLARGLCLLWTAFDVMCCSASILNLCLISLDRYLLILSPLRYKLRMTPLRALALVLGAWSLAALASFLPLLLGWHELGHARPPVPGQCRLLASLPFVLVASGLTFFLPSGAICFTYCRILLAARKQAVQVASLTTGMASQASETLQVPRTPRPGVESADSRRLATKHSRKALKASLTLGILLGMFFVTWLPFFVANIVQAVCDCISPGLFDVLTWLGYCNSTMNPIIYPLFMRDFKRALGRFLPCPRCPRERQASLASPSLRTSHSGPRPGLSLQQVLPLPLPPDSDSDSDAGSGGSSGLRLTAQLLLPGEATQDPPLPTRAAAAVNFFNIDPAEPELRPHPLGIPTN

Question: With `CN1CCN(c2nc(N)nc(CN3C(=O)NC(C)(c4ccc5ccccc5c4)C3=O)n2)CC1` (stereo not shown) [Compound 26, 3-((4-Amino-6-(4-methylpiperazin-1-yl)-1,3,5-triazin-2-yl)methyl)-5-methyl-5-(naphthalen-2-yl)imidazolidine-2,4-dione] as the compound, how does the “day of experiment from which groups differed significantly” value ([1]; rats fed palatable feed, 5 mg/kg b.w. i.p. daily) read?
Answer: 12 days

Question: What about the “weight gain vs control group” value ([1]; rats fed palatable feed, 5 mg/kg b.w. i.p., 21 days) of the same compound?
Answer: significantly less weight gain

Question: And the “body weight vs control animals fed standard feed” value ([1]; treated rats with access to preferential feed, 5 mg/kg b.w. i.p.)?
Answer: did not differ significantly

Question: And the “effect on body weight” value [2]?
Answer: No effects on body weight

Question: What about the “increase of number of accepted shocks” value (male Wistar rats) of the same compound?
Answer: 76%

Question: What about the “selectivity towards competitive G-protein coupled receptors” value (human serotonin 5-HT6R; 5-HT6R vs 5-HT1A, 5-HT2A, 5-HT7, D2) of the same compound?
Answer: 6–197 fold

Question: And the “selectivity over 5-HT7R” value (human serotonin 5-HT6R; 5-HT6R vs 5-HT7R)?
Answer: 6 fold

Question: And the Ki (human serotonin 5-HT6R; human receptor stably expressed in HEK-293 cells, mean of at least two independent experiments, read-out: Ki 5-HT6 [3H]-LSD)?
Answer: < 200 nM and 87 nM

Question: And the RM0 (Lipophilicity by RP-TLC)?
Answer: 3.76

Question: And the Ki (dopaminergic D2LR)?
Answer: 4250 nM
